Reference: patent publication US20260070927A1, “INDAZOLE MACROCYCLES FOR THE TREATMENT OF AUTOIMMUNE DISEASE” (Hoffmann-La Roche Inc., priority 2022, published 2026)

How the values were obtained:
STING (IFN-β in hPBMC) = assay: hPBMC cytokine functional assay (IFN-β decrease after Baculovirus stimulation); format: cell-based; conditions: Homo sapiens, Baculovirus MOI 40, 24 hours, read-out: hPBMC_IC50
Experimental: The inhibition of STING by compounds could be measured by the decrease of IFN-β in hPBMC, which is stimulated by a double stranded DNA virus Baculoviurs (Purchased from Genescript, pCMV-Dest Vector virus generation P2 BV stock virus, Sf-900 II medium with 5% FBS, Lot C9835DK230-2/P4DL001). Frozen hPBMC cells (purchased from Stemcell Technologies, cat number is 70025, Lot 191070803C) were thawed at 37° C. water bath, then cells were re-suspended in 50 ml tube using 20 ml Cell culture medium, and then centrifuged for 5 min at 2000 rpm before the supernatant was removed carefully. The cells were re-suspended in culture medium (RPMI-1640 with 1.5 g/L NaHCO3, 4.5 g/L glucose, 10 mM HEPES and 1 mM Na-pyruvate, 10% HI-FBS); 65 μL of the cell suspension was dispensed into 384 well plate (70K cells/well) by Multidrop Combi with at least 3 hours incubation at 37° C., 5% CO2 cell incubator.
Then 4 μL of compound solution per well (final 0.5% DMSO) was transferred by Agilent Bravo followed by infection with 11 μL of Baculovirus at a final MOI of 40. The level of IFN-β secreted in the supernatant of hPBMC was determined after 24 hours of incubation at 37° C. cell incubator by human IFN-β HTRF assay (Cisbio, cat: 62HIFNBPEH) following the manufacture's instruction. CellTiter-Glo kit (Promega, cat: G7573) was applied for the cell viability evaluation using Envision.

[1] = molecular target: human stimulator of interferon genes (STING) (139-379) (Homo sapiens (Human), UniProt Q86WV6); assay: Microliter plate-based TR-FRET competition-binding assay for binders of STING; conditions: Alexa488 probe, read-out: FRET_IC50
Experimental: This is the competition-binding assay to test the compounds' potency to the C-terminal Domain (CTD) and ligand-binding domain of human stimulator of interferon genes (STING). STING (139-379, Q86WV6, http://www.uniprot.org/uniprot) recombinant protein (in 20 mM Tris, 150 mM NaCl, pH 8.0, and expression in Escherichia coli (E. coli) BL21 (DE3)) with a C-terminal flag-tag was employed for the assay. When Alexa-488 labeled active site probe (refer to patent WO2017/175156 A1) bounds to STING (139-379), it accepts the 485 nm emission from Tb-M2-Flag-STING and results in an increase in fluorescence at 520 nm. Compounds that compete for the probe-binding site will reduce 520 nm signal. The assay was run in proxiplate-384 plus (PerkinElmer, cat: 60150300) containing of 2.5 nM STING, 2.5 nM M2-Tb (Cisbio, 61FG2TLA, Lot: 17 A) and 250 nM Alexa488 probe. Plates were centrifuged for 1 min at 1000 rpm, incubated for 30 min at room temperature, and then measured the dual fluorescence emission at 520 nm/485 nM following 320 nm laser excitation on an Envision plate reader (Perkin-Elmer). The compounds' effect on the STING binding is detected by measuring ratiometric fluorescence from time-resolved FRET. The percentage of inhibition of at each compound concentration is calculated on the basis of their changes of TR-FRET efficiency relative to the change of TR-FRET caused by positive control 2′3′cGAMP (Sigma, cat: SML1229).

human stimulator of interferon genes (STING) (139-379), sequence (Q86WV6 139-379): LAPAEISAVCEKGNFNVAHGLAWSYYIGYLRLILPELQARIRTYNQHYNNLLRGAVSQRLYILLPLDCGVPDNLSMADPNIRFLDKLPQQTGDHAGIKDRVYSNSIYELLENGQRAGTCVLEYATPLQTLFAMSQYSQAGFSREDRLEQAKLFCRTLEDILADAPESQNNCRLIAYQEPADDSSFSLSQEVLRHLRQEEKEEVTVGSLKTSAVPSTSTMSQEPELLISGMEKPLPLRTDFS

| SMILES | IC50 (STING (IFN-β in hPBMC)) | IC50 [1] |
| --- | --- | --- |
| Cn1nc2cccc3c2c1CCCNC(=O)[C@@H]1C[C@@H](CN1c1ncnc2c1cnn2-c1ccc(F)cc1F)Oc1cccc-3c1 [Example 1, (8S,11S)-10-[1-(2,4-difluorophenyl)pyrazolo[3,4-d]pyrimidin-4-yl]-18-methyl-7-oxa-10,13,18,19-tetrazapentacyclo[15.6.1.1^2,6.1^8,11.0^20,24]hexacosa-1(23),2(26),3,5,17(24),19,21-heptaen-12-one] | 486 nM | 0.8 nM |
| CN1CCCc2c3c(cccc3nn2C)-c2cccc(c2)O[C@H]2C[C@@H](C1=O)N(c1ncnc3c1cnn3-c1ccc(F)cc1F)C2 [Example 2, (8S,11S)-10-[1-(2,4-difluorophenyl)pyrazolo[3,4-d]pyrimidin-4-yl]-13,18-dimethyl-7-oxa-10,13,18,19-tetrazapentacyclo[15.6.1.1^2,6.1^8,11.0^20,24]hexacosa-1(23),2(26),3,5,17(24),19,21-heptaen-12-one] | 594 nM | 2.7 nM |
| CN1CCCc2c3c(cccc3nn2C)-c2cccc(n2)N[C@H]2C[C@@H](C1=O)N(c1ncnc3c1cnn3-c1ccc(F)cc1F)C2 [Example 3, (8S,11S)-10-[1-(2,4-difluorophenyl)pyrazolo[3,4-d]pyrimidin-4-yl]-13,18-dimethyl-7,10,13,18,19,26-hexazapentacyclo[15.6.1.1^2,6.1^8,11.0^20,24]hexacosa-1(23),2(26),3,5,17(24),19,21-heptaen-12-one] | 288 nM | 0.6 nM |
| CN1CCCc2c3c(cccc3nn2C)-c2ccnc(n2)N[C@H]2C[C@@H](C1=O)N(c1nccn3c(-c4ccc(F)cc4F)ncc13)C2 [Example 5, (8S,11S)-10-[3-(2,4-difluorophenyl)imidazo[1,5-a]pyrazin-8-yl]-13,18-dimethyl-5,7,10,13,18,19,26-heptazapentacyclo[15.6.1.1^2,6.1^8,11.0^20,24]hexacosa-1(23),2,4,6(26),17(24),19,21-heptaen-12-one] | 308 nM | 3.8 nM |
| COc1cc2nc(c1)-c1cccc3nn(C)c(c13)CCCN(C)C(=O)[C@@H]1C[C@@H](CN1c1ncnc3c1cnn3-c1ccc(F)cc1F)N2 [Example 13, (8S,11S)-10-[1-(2,4-difluorophenyl)pyrazolo[3,4-d]pyrimidin-4-yl]-4-methoxy-13,18-dimethyl-7,10,13,18,19,26-hexazapentacyclo[15.6.1.1^2,6.1^8,11.0^20,24]hexacosa-1(23),2,4,6(26),17(24),19,21-heptaen-12-one] | 224 nM | 4.7 nM |
| COc1cc2nc(c1)-c1cccc3nn(C)c(c13)CCCN(C)C(=O)[C@@H]1C[C@@H](CN1c1ncnc3c1cnn3-c1ccc(F)cc1OC)N2 [Example 14, (8S,11S)-10-[1-(4-fluoro-2-methoxy-phenyl)pyrazolo[3,4-d]pyrimidin-4-yl]-4-methoxy-13,18-dimethyl-7,10,13,18,19,26-hexazapentacyclo[15.6.1.1^2,6.1^8,11.0^20,24]hexacosa-1(23),2,4,6(26),17(24),19,21-heptaen-12-one] | 255 nM | 4.8 nM |
| Cn1nc2cccc3c2c1CCCN(CC1CC1)C(=O)[C@@H]1C[C@@H](CN1c1ncnc2c1cnn2-c1ccc(F)cc1F)Oc1cccc-3c1 [Example 15, (8S,11S)-13-(cyclopropylmethyl)-10-[1-(2,4-difluorophenyl)pyrazolo[3,4-d]pyrimidin-4-yl]-18-methyl-7-oxa-10,13,18,19-tetrazapentacyclo[15.6.1.1^2,6.1^8,11.0^20,24]hexacosa-1(23),2(26),3,5,17(24),19,21-heptaen-12-one] | 140 nM | 1.6 nM |
| Cn1nc2cccc3c2c1CCCN(Cc1cscn1)C(=O)[C@@H]1C[C@@H](CN1c1ncnc2c1cnn2-c1ccc(F)cc1F)Oc1cccc-3c1 [Example 17, (8S,11S)-10-[1-(2,4-difluorophenyl)pyrazolo[3,4-d]pyrimidin-4-yl]-18-methyl-13-(thiazol-4-ylmethyl)-7-oxa-10,13,18,19-tetrazapentacyclo[15.6.1.1^2,6.1^8,11.0^20,24]hexacosa-1(23),2(26),3,5,17(24),19,21-heptaen-12-one] |  | 2.2 nM |
| C=CCN1CCCc2c3c(cccc3nn2C)-c2cccc(c2)O[C@H]2C[C@@H](C1=O)N(c1ncnc3c1cnn3-c1ccc(F)cc1F)C2 [Example 20, (8S,11S)-13-allyl-10-[1-(2,4-difluorophenyl)pyrazolo[3,4-d]pyrimidin-4-yl]-18-methyl-7-oxa-10,13,18,19-tetrazapentacyclo[15.6.1.1^2,6.1^8,11.0^20,24]hexacosa-1(23),2(26),3,5,17(24),19,21-heptaen-12-one] | 346 nM | 1.9 nM |
| COCCN1CCCc2c3c(cccc3nn2C)-c2cccc(c2)O[C@H]2C[C@@H](C1=O)N(c1ncnc3c1cnn3-c1ccc(F)cc1F)C2 [Example 21, (8S,11S)-10-[1-(2,4-difluorophenyl)pyrazolo[3,4-d]pyrimidin-4-yl]-13-(2-methoxyethyl)-18-methyl-7-oxa-10,13,18,19-tetrazapentacyclo[15.6.1.1^2,6.1^8,11.0^20,24]hexacosa-1(23),2(26),3,5,17(24),19,21-heptaen-12-one] | 380 nM | 2 nM |
| Cn1nc2cccc3c2c1CCCN(CCN1CCOCC1)C(=O)[C@@H]1C[C@@H](CN1c1ncnc2c1cnn2-c1ccc(F)cc1F)Oc1cccc-3c1 [Example 23, (8S,11S)-10-[1-(2,4-difluorophenyl)pyrazolo[3,4-d]pyrimidin-4-yl]-18-methyl-13-(2-morpholinoethyl)-7-oxa-10,13,18,19-tetrazapentacyclo[15.6.1.1^2,6.1^8,11.0^20,24]hexacosa-1(23),2(26),3,5,17(24),19,21-heptaen-12-one] | 279 nM | 1.6 nM |
| Cn1nc2cc(F)cc3c2c1CCCN(CCN1CCOCC1)C(=O)[C@@H]1C[C@@H](CN1c1ncnc2c1cnn2-c1ccc(F)cc1F)Oc1cccc-3c1 [Example 25, (8S,11S)-10-[1-(2,4-difluorophenyl)pyrazolo[3,4-d]pyrimidin-4-yl]-22-fluoro-18-methyl-13-(2-morpholinoethyl)-7-oxa-10,13,18,19-tetrazapentacyclo[15.6.1.1^2,6.1^8,11.0^20,24]hexacosa-1(23),2(26),3,5,17(24),19,21-heptaen-12-one] | 549 nM | 18.4 nM |
| Cn1nc2cccc3c2c1CCCN(CCCn1cncn1)C(=O)[C@@H]1C[C@@H](CN1c1ncnc2c1cnn2-c1ccc(F)cc1F)Oc1cccc-3c1 [Example 37, (8S,11S)-10-[1-(2,4-difluorophenyl)pyrazolo[3,4-d]pyrimidin-4-yl]-18-methyl-13-[3-(1,2,4-triazol-1-yl)propyl]-7-oxa-10,13,18,19-tetrazapentacyclo[15.6.1.1^2,6.1^8,11.0^20,24]hexacosa-1(23),2(26),3,5,17(24),19,21-heptaen-12-one] |  | 1.5 nM |
| COCCOCCCN1CCCc2c3c(cccc3nn2C)-c2cccc(c2)O[C@H]2C[C@@H](C1=O)N(c1ncnc3c1cnn3-c1ccc(F)cc1F)C2 [Example 39, (8S,11S)-10-[1-(2,4-difluorophenyl)pyrazolo[3,4-d]pyrimidin-4-yl]-13-[3-(2-methoxyethoxy)propyl]-18-methyl-7-oxa-10,13,18,19-tetrazapentacyclo[15.6.1.1^2,6.1^8,11.0^20,24]hexacosa-1(23),2(26),3,5,17(24),19,21-heptaen-12-one] |  | 5.5 nM |
